Values joined by “and” are separate entries in the source; they are usually repeats but may differ in a detail not shown here. Equal values may be shown once. “Also recorded” adds a separate entry of the source.
Tests used:
MAO-B = molecular target: T1, MAO-B (Homo sapiens, UniProt P27338); experiment: MAO-Glo luminescent assay, MAO-B inhibition; assay type: biochemical; details: compared among isomyosmine, myosmine, anatabine, anabasine, nornicotine
T1 construct: purchased
T1 sequence (P27338 1-520): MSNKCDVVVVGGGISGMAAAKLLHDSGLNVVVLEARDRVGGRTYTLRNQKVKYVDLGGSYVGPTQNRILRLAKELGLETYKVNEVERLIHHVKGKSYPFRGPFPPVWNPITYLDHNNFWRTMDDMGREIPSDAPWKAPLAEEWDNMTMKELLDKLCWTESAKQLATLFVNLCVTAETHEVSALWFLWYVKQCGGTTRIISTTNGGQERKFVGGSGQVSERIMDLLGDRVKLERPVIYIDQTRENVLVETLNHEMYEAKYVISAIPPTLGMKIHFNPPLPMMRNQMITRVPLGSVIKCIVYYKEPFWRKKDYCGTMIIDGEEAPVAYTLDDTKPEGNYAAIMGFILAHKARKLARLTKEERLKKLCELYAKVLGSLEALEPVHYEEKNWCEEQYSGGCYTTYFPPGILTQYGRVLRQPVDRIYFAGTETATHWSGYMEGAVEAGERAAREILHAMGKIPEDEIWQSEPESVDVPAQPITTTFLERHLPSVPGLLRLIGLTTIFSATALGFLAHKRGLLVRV
Source text: (§1) This example describes experiments for determining monoamine oxidase (MAO) inhibition for isomyosmine and other alkaloids. MAOs are enzymes located on the outer membrane of mitochondria and are involved in the catabolism of monoamine neurotransmitters. There are two well-characterized isoenzymes: MAO-A, which predominantly catabolizes serotonin and norepinephrine, and MAO-B, which preferentially catabolizes benzylamine and phenylethylamine. Dopamine and tyramine are metabolized by both isoforms.
(§2) To detect the activity of MAO, a luminescent method (MAO-Glo Assay kit, from Promega, Cat #V1401) was used. In this method, a MAO substrate (a derivative of beetle luciferin provided in the kit) is mixed with the compound to be tested (in this case, myosmine and control compounds). Then, the MAO enzymes (either A or B, purchased separately) are added to the mixture and incubated with the reaction for 1 hour at room temperature. The MAO enzymes, if not inhibited by the test compound, will convert the substrate into methyl ester luciferin. Finally, a luciferin detection reagent (provided by the kit) is added (20 minutes at room temperature) to stop the MAO reaction and convert methyl ester luciferin into D-luciferin. […] The luminescent signal is measured and recorded using a luminometer. […]

MAO-A = molecular target: T2, MAO-A (Homo sapiens, UniProt P21397); experiment: MAO-Glo luminescent assay, MAO-A inhibition; assay type: biochemical; details: compared among isomyosmine, myosmine, anatabine, anabasine, nornicotine; clorgyline positive control
T2 construct: purchased
T2 sequence (P21397 1-527): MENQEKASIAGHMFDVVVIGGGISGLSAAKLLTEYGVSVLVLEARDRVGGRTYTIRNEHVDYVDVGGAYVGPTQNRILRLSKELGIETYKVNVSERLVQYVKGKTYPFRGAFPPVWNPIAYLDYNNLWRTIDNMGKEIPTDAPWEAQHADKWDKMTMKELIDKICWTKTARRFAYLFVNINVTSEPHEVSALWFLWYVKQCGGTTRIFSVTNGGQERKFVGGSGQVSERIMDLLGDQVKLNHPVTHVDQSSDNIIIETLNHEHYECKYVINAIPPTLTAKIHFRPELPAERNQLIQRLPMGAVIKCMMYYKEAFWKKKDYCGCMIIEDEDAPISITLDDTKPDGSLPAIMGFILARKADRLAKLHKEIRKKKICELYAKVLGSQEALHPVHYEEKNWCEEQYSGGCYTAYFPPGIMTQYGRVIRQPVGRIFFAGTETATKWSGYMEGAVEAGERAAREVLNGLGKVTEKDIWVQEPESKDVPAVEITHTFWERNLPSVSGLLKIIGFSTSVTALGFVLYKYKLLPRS
Source text: as §1, §2

surgical incisions = experiment: Topical administration for wound healing; assay type: in vivo, human; details: e.g., avoid scarring around surgical incisions
Source text: In another aspect, a method of treating a wound comprises administering to an individual in need thereof a pharmaceutical composition containing a therapeutically effective amount of isomyosmine or a pharmaceutically acceptable salt thereof.

[1] = test system: individuals (peripheral capillary oxygen saturation); experiment: Blood oxygen saturation (SpO2) by pulse oximetry in individuals; assay type: in vivo, human; details: one hour after a single dose (50-100 mg), seven individuals
Source text: This example illustrates the effect of isomyosmine on normal blood oxygen saturation levels (SpO2). SpO2 refers to peripheral capillary oxygen saturation, an estimate of the amount of oxygen in the blood. More specifically, it is the percentage of oxygenated hemoglobin (hemoglobin containing oxygen) compared to the total amount of hemoglobin in the blood (oxygenated and non-oxygenated hemoglobin). SpO2 can be measured by pulse oximetry, an indirect, non-invasive method. It works by emitting and then absorbing a light wave passing through blood vessels (or capillaries) in the fingertip. A variation of the light wave passing through the finger will give the value of the SpO2 measurement because the degree of oxygen saturation causes variations in the blood's color.

[2] = test system: individuals experiencing high blood pressure; experiment: Treatment of individuals experiencing high blood pressure; assay type: in vivo, human; details: 100 mg per day
Experimental: (§3) This example illustrates administering isomyosmine to treat high blood pressure. Twelve individuals experiencing high blood pressure were each administered isomyosmine at dose of 100 mg per day. […] The blood pressure of one of the individuals was measured to be 145/86 mmHg without isomyosmine in the bloodstream and was measured to be 109/59 mmHg while being treated with isomyosmine. Another of the individuals was being treated for type II diabetes at the beginning of the treatment.

[3] = test system: individual being treated for type II diabetes; experiment: Individual with type II diabetes treated with isomyosmine; assay type: in vivo, human; details: one individual, 100 mg per day, following three months of treatment; taken off existing diabetes medication
Experimental: as §3

[4] = test system: stage-four cancer patient diagnosed with autoimmune amyloidosis; experiment: Treatment of a stage-four cancer patient with autoimmune amyloidosis; immunoglobulin light chain Kappa/Lambda detection in blood; assay type: in vivo, human; details: for Lambda Light Chains / Free Light Chains Ratio / Kappa Light Chains: 250 mg daily; for Lambda Light Chains: initial 6.5, standard range 5.7-26.3; for Free Light Chains Ratio: initial 75.38, standard range 0.26-1.65; for Kappa Light Chains: initial 490.0, standard range 3.3-19.4
Experimental: This example illustrates treating a stage-four cancer patient who had been diagnosed with autoimmune amyloidosis. At the time treatment began, the individual was bedridden under hospice care and told they had only a few days to live. The individual was administered a daily dose of 250 mg isomyosmine.
The patient's blood was tested using conventional immunoglobulin light chain Kappa/Lambda detection. The immunoglobulin kappa and lambda (Ig κ/λ) in situ hybridization (ISH) system is designed for the detection of human kappa and lambda immunoglobulin light chain messenger RNA (mRNA) in tissue sections and blood and bone marrow smears. The system uses biotin-labeled oligonucleotide probes. The probe-mRNA duplex is indirectly detected using an enzyme-conjugated antibody targeting the biotin conjugate. For color development, a chromogenic substrate is added. Enzymatic reaction of the chromogenic substrate leads to the formation of a color precipitate that is visualized by light microscopy.

[5] = test system: herpes labialis (herpes simplex); experiment: Treatment of herpes labialis (cold sores) in an individual; assay type: in vivo, human; details: 100 mg dose upon first feeling the onset of a cold sore
Experimental: This example illustrates administering isomyosmine to treat herpes labialis (cold sores), a type of herpes simplex occurring on the lip. An individual who experiences periodic outbreaks of herpes labialis was administered a 100 mg dose of isomyosmine upon first feeling the onset of a cold sore.

C1=NC(c2cccnc2)CC1 (stereo not shown) [isomyosmine, 3-(3,4-dihydro-2H-pyrrol-2-yl)-pyridine]
inhibiting the activity of MAO-B (result in words, FIG. 4) (MAO-B): most potent among the five alkaloids tested; also recorded: potent inhibitor
inhibiting the enzymatic activity of MAO-A (result in words, FIG. 3) (MAO-A): most potent of the five; also recorded: potent inhibitor
wound healing (result in words) (surgical incisions): dramatically improve healing
blood oxygenation (result in words) [1]: significant increase in blood oxygenation
Dosed SpO2 ([1]; base SpO2 94.0-97.0): 98.0 (5×) and 99.0 (2×)
blood pressure while being treated ([2]; one individual, 145/86 mmHg without isomyosmine in the bloodstream): 109/59
change in blood pressure during treatment ([2]; twelve individuals): reduction in blood pressure
symptoms of diabetes [3]: no symptoms of diabetes
Lambda Light Chains ([4]; 3 weeks): 10.9 mg/L
Free Light Chains Ratio ([4]; 3 weeks): 55.23
Kappa Light Chains ([4]; 3 weeks): 602.0 mg/L
Lambda Light Chains ([4]; 9 weeks): 9.2 mg/L
Free Light Chains Ratio ([4]; 9 weeks): 42.83
Kappa Light Chains ([4]; 9 weeks): 394.0 mg/L
Lambda Light Chains ([4]; 12 weeks): 7.1 mg/L
Free Light Chains Ratio ([4]; 12 weeks): 29.58
Kappa Light Chains ([4]; 12 weeks): 210.0 mg/L
Lambda Light Chains ([4]; 14 weeks): 3.0 mg/L
Free Light Chains Ratio ([4]; 14 weeks): 64.33
Kappa Light Chains ([4]; 14 weeks): 193.0 mg/L
Lambda Light Chains ([4]; 17 weeks): 3.6 mg/L
Free Light Chains Ratio ([4]; 17 weeks): 28.89
Kappa Light Chains ([4]; 17 weeks): 104.0 mg/L
individual's symptoms ([4]; daily dose of 250 mg, within two weeks of treatment, able to get out of bed and walk around): remarkably improved
outbreak of cold sore [5]: effective to prevent the outbreak of the cold sore
